Data as given in ChEMBL document CHEMBL5724806, “Unraveling interindividual differences and functional consequences of gut microbial metabolism of immunosuppressants” (2024).

Columns and labels:
Format in all cases: ADME
[1] = The drug is tested on Bacteroides vulgatus strain: DSM1447 for biotransformation under anaerobic condition. The drug concentrations were measured over 6 timepoints collected between 0 and 12 hours of incubation by liquid-chromatography-coupled mass spectrometry (LC–MS); design: dose 5 uM, timepoint 0, 1.5, 3, 6, 9, 12 hours; conditions: phocaeicola vulgatus, 5 µM
[2] = The drug is tested on Bacteroides thetaiotaomicron strain: DSM2079 for biotransformation under anaerobic condition. The drug concentrations were measured over 6 timepoints collected between 0 and 12 hours of incubation by liquid-chromatography-coupled mass spectrometry (LC–MS); design: dose 5 uM, timepoint 0, 1.5, 3, 6, 9, 12 hours; conditions: 5 µM
[3] = (§1) The drug is tested on the gut metagenome community of A-03 with ENA study accession number: PRJEB31790 for biotransformation under microaerobic condition. The drug concentrations were measured over 7 timepoints collected between 0 and 12 hours of incubation by liquid-chromatography-coupled mass spectrometry (LC–MS); design: dose 5 uM, timepoint 0, 0.75, 1.5, 3, 6, 9, 12 hours; conditions: 5 µM
[4] = The drug is tested on Gemella haemolysans strain: DSM107751 for biotransformation under anaerobic condition. The drug concentrations were measured over 6 timepoints collected between 0 and 12 hours of incubation by liquid-chromatography-coupled mass spectrometry (LC–MS); design: dose 5 uM, timepoint 0, 1.5, 3, 6, 9, 12 hours; conditions: 5 µM
[5] = as §1, with “P-03” for “A-03”, “anaerobic” for “microaerobic”; design: dose 5 uM, timepoint 0, 0.75, 1.5, 3, 6, 9, 12 hours; conditions: 5 µM
[6] = The drug is tested on Alloscardovia omnicolens strain: DSM21503 for biotransformation under anaerobic condition. The drug concentrations were measured over 6 timepoints collected between 0 and 12 hours of incubation by liquid-chromatography-coupled mass spectrometry (LC–MS); design: dose 5 uM, timepoint 0, 1.5, 3, 6, 9, 12 hours; conditions: 5 µM
[7] = as §1, with “A-04” for “A-03”, “anaerobic” for “microaerobic”; design: dose 5 uM, timepoint 0, 0.75, 1.5, 3, 6, 9, 12 hours; conditions: 5 µM
[8] = The drug is tested on Escherichia coli strain: DSM27469 for biotransformation under anaerobic condition. The drug concentrations were measured over 6 timepoints collected between 0 and 12 hours of incubation by liquid-chromatography-coupled mass spectrometry (LC–MS); design: dose 5 uM, timepoint 0, 1.5, 3, 6, 9, 12 hours; conditions: 5 µM
[9] = as §1, with “A-01” for “A-03”; design: dose 5 uM, timepoint 0, 0.75, 1.5, 3, 6, 9, 12 hours; conditions: 5 µM
[10] = The drug is tested on Clostridium scindens strain: DSM5676 for biotransformation under anaerobic condition. The drug concentrations were measured over 6 timepoints collected between 0 and 12 hours of incubation by liquid-chromatography-coupled mass spectrometry (LC–MS); design: dose 5 uM, timepoint 0, 1.5, 3, 6, 9, 12 hours; conditions: 5 µM
[11] = The drug is tested on Alloscardovia omnicolens strain: DSM21503 for biotransformation under microaerobic condition. The drug concentrations were measured over 6 timepoints collected between 0 and 12 hours of incubation by liquid-chromatography-coupled mass spectrometry (LC–MS); design: dose 5 uM, timepoint 0, 1.5, 3, 6, 9, 12 hours; conditions: 5 µM
[12] = The drug is tested on Lactobacillus fermentum strain: DSM20052 for biotransformation under anaerobic condition. The drug concentrations were measured over 6 timepoints collected between 0 and 12 hours of incubation by liquid-chromatography-coupled mass spectrometry (LC–MS); design: dose 5 uM, timepoint 0, 1.5, 3, 6, 9, 12 hours; conditions: limosilactobacillus fermentum, 5 µM
[13] = The drug is tested on Lactobacillus gasseri strain: DSM20243 for biotransformation under anaerobic condition. The drug concentrations were measured over 6 timepoints collected between 0 and 12 hours of incubation by liquid-chromatography-coupled mass spectrometry (LC–MS); design: dose 5 uM, timepoint 0, 1.5, 3, 6, 9, 12 hours; conditions: 5 µM
[14] = The drug is tested on Streptococcus anginosus strain: DSM20563 for biotransformation under microaerobic condition. The drug concentrations were measured over 6 timepoints collected between 0 and 12 hours of incubation by liquid-chromatography-coupled mass spectrometry (LC–MS); design: dose 5 uM, timepoint 0, 1.5, 3, 6, 9, 12 hours; conditions: 5 µM
[15] = as §1, with “A-02” for “A-03”; design: dose 5 uM, timepoint 0, 0.75, 1.5, 3, 6, 9, 12 hours; conditions: 5 µM
[16] = The drug is tested on Lactobacillus ruminis strain: ATCC25644 for biotransformation under anaerobic condition. The drug concentrations were measured over 6 timepoints collected between 0 and 12 hours of incubation by liquid-chromatography-coupled mass spectrometry (LC–MS); design: dose 5 uM, timepoint 0, 1.5, 3, 6, 9, 12 hours; conditions: ligilactobacillus ruminis, 5 µM
[17] = The drug is tested on Lactobacillus reuteri strain: DSM20016 for biotransformation under microaerobic condition. The drug concentrations were measured over 6 timepoints collected between 0 and 12 hours of incubation by liquid-chromatography-coupled mass spectrometry (LC–MS); design: dose 5 uM, timepoint 0, 1.5, 3, 6, 9, 12 hours; conditions: limosilactobacillus reuteri, 5 µM
[18] = as §1, with “P-01” for “A-03”, “anaerobic” for “microaerobic”; design: dose 5 uM, timepoint 0, 0.75, 1.5, 3, 6, 9, 12 hours; conditions: 5 µM
[19] = as §1, with “P-02” for “A-03”, “anaerobic” for “microaerobic”; design: dose 5 uM, timepoint 0, 0.75, 1.5, 3, 6, 9, 12 hours; conditions: 5 µM
[20] = The drug is tested on Streptococcus sanguinis strain: DSM20567 for biotransformation under microaerobic condition. The drug concentrations were measured over 6 timepoints collected between 0 and 12 hours of incubation by liquid-chromatography-coupled mass spectrometry (LC–MS); design: dose 5 uM, timepoint 0, 1.5, 3, 6, 9, 12 hours; conditions: 5 µM
[21] = as §1, with “A-10” for “A-03”, “anaerobic” for “microaerobic”; design: dose 5 uM, timepoint 0, 0.75, 1.5, 3, 6, 9, 12 hours; conditions: 5 µM
[22] = The drug is tested on Lactobacillus reuteri strain: DSM20016 for biotransformation under anaerobic condition. The drug concentrations were measured over 6 timepoints collected between 0 and 12 hours of incubation by liquid-chromatography-coupled mass spectrometry (LC–MS); design: dose 5 uM, timepoint 0, 1.5, 3, 6, 9, 12 hours; conditions: limosilactobacillus reuteri, 5 µM
[23] = The drug is tested on Akkermansia muciniphila strain: DSM22959 for biotransformation under anaerobic condition. The drug concentrations were measured over 6 timepoints collected between 0 and 12 hours of incubation by liquid-chromatography-coupled mass spectrometry (LC–MS); design: dose 5 uM, timepoint 0, 1.5, 3, 6, 9, 12 hours; conditions: 5 µM
[24] = The drug is tested on Gemella morbillorum strain: DSM20572 for biotransformation under microaerobic condition. The drug concentrations were measured over 6 timepoints collected between 0 and 12 hours of incubation by liquid-chromatography-coupled mass spectrometry (LC–MS); design: dose 5 uM, timepoint 0, 1.5, 3, 6, 9, 12 hours; conditions: 5 µM
[25] = as §1, with “P-04” for “A-03”; design: dose 5 uM, timepoint 0, 0.75, 1.5, 3, 6, 9, 12 hours; conditions: 5 µM
[26] = The drug is tested on Lactobacillus paracasei strain: ATCC27092 for biotransformation under anaerobic condition. The drug concentrations were measured over 6 timepoints collected between 0 and 12 hours of incubation by liquid-chromatography-coupled mass spectrometry (LC–MS); design: dose 5 uM, timepoint 0, 1.5, 3, 6, 9, 12 hours; conditions: lacticaseibacillus paracasei, 5 µM
[27] = as §1, with “T-03” for “A-03”; design: dose 5 uM, timepoint 0, 0.75, 1.5, 3, 6, 9, 12 hours; conditions: 5 µM
[28] = as §1, with “A-01” for “A-03”, “anaerobic” for “microaerobic”; design: dose 5 uM, timepoint 0, 0.75, 1.5, 3, 6, 9, 12 hours; conditions: 5 µM
[29] = The drug is tested on Clostridium ramosum strain: DSM1402 for biotransformation under anaerobic condition. The drug concentrations were measured over 6 timepoints collected between 0 and 12 hours of incubation by liquid-chromatography-coupled mass spectrometry (LC–MS); design: dose 5 uM, timepoint 0, 1.5, 3, 6, 9, 12 hours; conditions: thomasclavelia ramosa, 5 µM
[30] = as §1, with “T-02” for “A-03”, “anaerobic” for “microaerobic”; design: dose 5 uM, timepoint 0, 0.75, 1.5, 3, 6, 9, 12 hours; conditions: 5 µM

- Bacterial Biotransformation [1]: Compound NOT metabolized
- Bacterial Biotransformation [2]: Compound NOT metabolized
- Bacterial Biotransformation [3]: Compound metabolized
- Bacterial Biotransformation [5]: Compound NOT metabolized
- Bacterial Biotransformation [6]: Compound NOT metabolized
- Bacterial Biotransformation [7]: Compound metabolized
- Bacterial Biotransformation [8]: Compound NOT metabolized
- Bacterial Biotransformation [9]: Compound NOT metabolized
- Bacterial Biotransformation [10]: Compound metabolized
- Bacterial Biotransformation [11]: Compound NOT metabolized
- Bacterial Biotransformation [12]: Compound NOT metabolized
- Bacterial Biotransformation [13]: Compound NOT metabolized
- Bacterial Biotransformation [14]: Compound NOT metabolized
- Bacterial Biotransformation [15]: Compound metabolized
- Bacterial Biotransformation [16]: Compound NOT metabolized
- Bacterial Biotransformation [17]: Compound NOT metabolized
- Bacterial Biotransformation [18]: Compound NOT metabolized
- Bacterial Biotransformation [19]: Compound NOT metabolized
- Bacterial Biotransformation [20]: Compound NOT metabolized
- Bacterial Biotransformation [21]: Compound metabolized
- Bacterial Biotransformation [22]: Compound NOT metabolized
- Bacterial Biotransformation [23]: Compound NOT metabolized
- Bacterial Biotransformation [24]: Compound NOT metabolized
- Bacterial Biotransformation [25]: Compound NOT metabolized
- Bacterial Biotransformation [26]: Compound NOT metabolized
- Bacterial Biotransformation [27]: Compound NOT metabolized
- Bacterial Biotransformation [28]: Compound NOT metabolized
- Bacterial Biotransformation [29]: Compound NOT metabolized
- Bacterial Biotransformation [30]: Compound metabolized
Structure (SMILES): C=CC[C@@H]1/C=C(\C)C[C@H](C)C[C@H](OC)[C@H]2O[C@@](O)(C(=O)C(=O)N3CCCC[C@H]3C(=O)O[C@H](/C(C)=C/[C@@H]3CC[C@@H](O)[C@H](OC)C3)[C@H](C)[C@@H](O)CC1=O)[C@H](C)C[C@@H]2OC.O [TACROLIMUS]
- Bacterial Biotransformation [4]: Compound NOT metabolized
